Legend:
[1] = molecular target: T1, NAD-dependent protein deacetylase sirtuin-1 (Homo sapiens) (UniProt Q96EB6); assay: Activation of SIRT1 relative to control
T1 sequence (whole entry): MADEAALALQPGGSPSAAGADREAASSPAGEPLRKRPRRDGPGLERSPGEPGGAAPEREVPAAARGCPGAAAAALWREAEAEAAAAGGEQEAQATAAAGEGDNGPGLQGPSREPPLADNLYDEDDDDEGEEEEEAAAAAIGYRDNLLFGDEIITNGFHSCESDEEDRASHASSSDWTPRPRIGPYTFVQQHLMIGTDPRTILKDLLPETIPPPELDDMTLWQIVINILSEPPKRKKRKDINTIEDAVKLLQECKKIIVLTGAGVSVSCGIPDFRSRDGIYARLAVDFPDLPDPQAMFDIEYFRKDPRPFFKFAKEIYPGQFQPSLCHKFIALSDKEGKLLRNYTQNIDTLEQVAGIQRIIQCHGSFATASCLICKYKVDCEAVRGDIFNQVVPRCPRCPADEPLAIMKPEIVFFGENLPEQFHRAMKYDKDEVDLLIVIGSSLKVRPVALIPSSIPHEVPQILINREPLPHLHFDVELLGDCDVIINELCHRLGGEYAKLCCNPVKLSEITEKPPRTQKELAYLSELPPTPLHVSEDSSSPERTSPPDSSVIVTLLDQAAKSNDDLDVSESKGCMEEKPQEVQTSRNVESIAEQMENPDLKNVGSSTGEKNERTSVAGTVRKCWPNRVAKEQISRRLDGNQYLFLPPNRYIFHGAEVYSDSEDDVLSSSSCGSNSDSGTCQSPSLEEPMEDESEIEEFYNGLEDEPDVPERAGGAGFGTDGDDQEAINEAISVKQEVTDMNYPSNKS

[2] = molecular target: T2, NAD-dependent protein deacetylase sirtuin-1 (Homo sapiens, UniProt Q96EB6); assay: Activation of SIRT1
T2 sequence (Q96EB6 whole entry): T1 sequence (whole entry)

[3] = molecular target: T2, NAD-dependent protein deacetylase sirtuin-1; assay: Inhibition of SIRT1
[4] = molecular target: T3, NAD-dependent protein deacetylase sirtuin-2 (Homo sapiens, UniProt Q8IXJ6); assay: Inhibition of SIRT2
T3 sequence (Q8IXJ6 whole entry): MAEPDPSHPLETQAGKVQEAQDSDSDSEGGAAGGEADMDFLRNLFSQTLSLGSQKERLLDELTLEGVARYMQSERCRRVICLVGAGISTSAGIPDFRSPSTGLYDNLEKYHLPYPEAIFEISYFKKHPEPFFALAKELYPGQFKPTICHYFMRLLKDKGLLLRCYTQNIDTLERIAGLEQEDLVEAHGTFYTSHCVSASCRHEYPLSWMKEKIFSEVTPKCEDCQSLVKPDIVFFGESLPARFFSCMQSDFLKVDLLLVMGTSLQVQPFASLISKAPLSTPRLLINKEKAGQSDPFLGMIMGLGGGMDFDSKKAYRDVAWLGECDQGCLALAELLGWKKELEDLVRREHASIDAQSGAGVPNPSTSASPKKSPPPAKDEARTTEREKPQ

[5] = Half life in mouse; assay type: ADME, organism-based; conditions: in vivo
[6] = molecular target: T4, NAD-dependent protein deacetylase sirtuin-3, mitochondrial (Homo sapiens, UniProt Q9NTG7); assay: Inhibition of SIRT3
T4 sequence (Q9NTG7 whole entry): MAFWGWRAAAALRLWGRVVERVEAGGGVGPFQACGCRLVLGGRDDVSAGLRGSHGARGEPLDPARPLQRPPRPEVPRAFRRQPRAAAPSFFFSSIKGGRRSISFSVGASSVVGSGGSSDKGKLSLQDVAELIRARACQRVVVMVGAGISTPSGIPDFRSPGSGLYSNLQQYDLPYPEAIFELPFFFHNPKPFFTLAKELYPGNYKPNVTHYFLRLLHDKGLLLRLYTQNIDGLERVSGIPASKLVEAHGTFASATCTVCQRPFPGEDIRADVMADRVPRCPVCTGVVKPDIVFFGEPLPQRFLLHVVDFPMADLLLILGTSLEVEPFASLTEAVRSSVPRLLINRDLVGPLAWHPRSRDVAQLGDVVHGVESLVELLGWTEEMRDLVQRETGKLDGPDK

Mus musculus [7] = assay: Increase of SIRT1 mRNA expression in mouse brain at 25 mg/kg qd for 7 days by RT-PCR analysis; assay type: functional
Mus musculus [8] = assay: Increase of SIRT1 mRNA expression in mouse brain at 12.5 mg/kg qd for 7 days by RT-PCR analysis; assay type: functional
Mus musculus [9] = assay: Increase of SIRT1 mRNA expression in mouse soleus muscle at 12.5 to 25 mg/kg qd for 7 days by RT-PCR analysis; assay type: functional; conditions: dose mg/kg 12.5-25

| SMILES | Emax [1] [%] | EC50 [2] [µM] | IC50 [3] [µM] | further results |
| --- | --- | --- | --- | --- |
| O=C(Nc1ccc(CN2CCNCC2)cc1-c1nc2ccccc2[nH]1)c1cnc2ccccc2n1 | 820 | 0.4 |  |  |
| O=C1Nc2c(ccc(Cl)c2Cl)/C1=C/c1cc(Br)c(O)c(Br)c1 |  |  | 40 | IC50 [4]: 28 µM |
| COc1ccc(C(=O)Nc2cccc(-c3nc4ncccc4o3)c2)cc1OC | 240 | 6 |  |  |
| CN(C)c1cccc(C(=O)Nc2cccc(-c3nc4ncccc4o3)c2)c1 | 207 | 25 |  |  |
| O=C(Nc1ccccc1-c1nc2ccccc2[nH]1)c1cnc2ccccc2n1 | 253 | 0.3 |  |  |
| O=C(Nc1ccccc1-c1nc2cccnc2s1)c1cc(N2CCOCC2)nc(-c2ccccc2)n1 |  | < 0.25 |  |  |
| COc1ccc(C(=O)Nc2ccccc2-c2nc3ncccc3o2)cc1OC | 170 | 0.9 |  |  |
| NC(=O)C1CCCc2c1[nH]c1ccc(Cl)cc21 (configuration not stated) |  |  |  | half-life [5]: 3.23 h |
| O=C1c2cccc3cccc(c23)C(=O)N1CCNCCCNCCCNCCN1C(=O)c2cccc3cccc(c23)C1=O |  |  | 43 |  |
| Cc1ccc2[nH]c(=O)c(C=C3C(=O)NC(=S)NC3=O)cc2c1 |  |  | 13 | IC50 [4]: 11 µM |
| O=C1NC(=S)NC(=O)C1=Cc1cccc2ccccc12 |  |  | 13 | IC50 [4]: 9 µM |
| O=C(Nc1nccs1)c1cccc2[nH]c(-c3cccc(C(F)(F)F)c3)nc12 | > 200 | < 1 |  |  |
| NC(=O)c1ccccc1Nc1ccccc1 [ANILINOBENZAMIDE] |  |  | 17 |  |
| CC(=S)NCCCC[C@H](NC(=O)OCc1ccccc1)C(=O)Nc1ccccc1 |  |  |  | IC50 [6]: > 100 µM |
| O=C(Nc1ccccc1-c1nc2cccnc2s1)c1cc(NC[C@@H](O)CO)nc(-c2ccccc2)n1 |  | < 0.25 |  |  |
| CCOC(=O)CC(=O)NCCCC[C@H](NC(=O)OCc1ccccc1)C(=O)Nc1ccccc1 |  |  | 4 | IC50 [6]: > 300 µM; IC50 [4]: 65 µM |
| O=c1[nH]c(=S)[nH]c(-c2ccc(Br)cc2)c1Cc1c(O)ccc2ccccc12 |  |  | 13 |  |
| O=c1c(O)c(-c2ccc(O)c(O)c2)oc2cc(O)cc(O)c12 [QUERCETIN] |  |  |  | Activity (Mus musculus [7]): 100%; Activity (Mus musculus [8]): 50%; Activity (Mus musculus [9]): 200% |
| Cc1ccc(C(=O)Nc2ccc(S(=O)(=O)O)c3cc(S(=O)(=O)O)cc(S(=O)(=O)O)c23)cc1NC(=O)c1cccc(NC(=O)Nc2cccc(C(=O)Nc3cc(C(=O)Nc4ccc(S(=O)(=O)O)c5cc(S(=O)(=O)O)cc(S(=O)(=O)O)c45)ccc3C)c2)c1 [SURAMIN HEXASODIUM] |  |  |  | IC50 [4]: 1.2 µM |
| O=C1NC(=S)NC(=O)C1=Cc1cc2ccccc2[nH]1 |  |  | 6 | IC50 [4]: 20 µM |
| CN(C)c1cccc(C(=O)Nc2ccccc2-c2nc3ncccc3o2)c1 | 209 | 4.4 |  |  |
| O=C(Nc1ccccc1-c1nc2cccnc2s1)c1cc(N2CCNCC2)nc(-c2ccccc2)n1 |  | < 0.25 |  |  |

From ChEMBL document CHEMBL2169871, “SIRT1 modulation as a novel approach to the treatment of diseases of aging” (J Med Chem, 2011)
